For assay [1], the target named is Human recombinant PDE10A2 (Homo sapiens (Human), UniProt Q9Y233). As to the kind of experiment: In vitro hPDE10a (human recombinant PDE10A2, scintillation proximity assay). In kind it is biochemical. The note with it: human recombinant PDE10A2, 60 nM cAMP, 60 min at room temperature; read-out: hPDE10a2 IC50.
For assay [2], the target named is Rat recombinant PDE10a (rPDE10a) (Rattus norvegicus (Rat), UniProt Q9QYJ6). Briefly: In vitro assay PDE10a (rat recombinant PDE10a, SPA). The following applies: 60 nM cAMP, 60 min at rt, read-out: rPDE10a2 IC50. Format: biochemical. The method in brief:
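Rat PDE10a expressed in Sf9 cells (baculovirus) and Ni-sepharose purified. Incubated with compound for 60 min at rt in 50 mM Tris pH 7.8, 8.3 mM MgCl2, 1.7 mM EGTA with 60 nM cAMP plus 0.008 μCi ^3H-cAMP (final), 1% DMSO. Read-out by PDE SPA bead scintillation counting (cpm), no-enzyme blank.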

Where a name gives a salt, the structure may show the parent alone.

Rat recombinant PDE10a (rPDE10a), sequence (Q9QYJ6 whole entry): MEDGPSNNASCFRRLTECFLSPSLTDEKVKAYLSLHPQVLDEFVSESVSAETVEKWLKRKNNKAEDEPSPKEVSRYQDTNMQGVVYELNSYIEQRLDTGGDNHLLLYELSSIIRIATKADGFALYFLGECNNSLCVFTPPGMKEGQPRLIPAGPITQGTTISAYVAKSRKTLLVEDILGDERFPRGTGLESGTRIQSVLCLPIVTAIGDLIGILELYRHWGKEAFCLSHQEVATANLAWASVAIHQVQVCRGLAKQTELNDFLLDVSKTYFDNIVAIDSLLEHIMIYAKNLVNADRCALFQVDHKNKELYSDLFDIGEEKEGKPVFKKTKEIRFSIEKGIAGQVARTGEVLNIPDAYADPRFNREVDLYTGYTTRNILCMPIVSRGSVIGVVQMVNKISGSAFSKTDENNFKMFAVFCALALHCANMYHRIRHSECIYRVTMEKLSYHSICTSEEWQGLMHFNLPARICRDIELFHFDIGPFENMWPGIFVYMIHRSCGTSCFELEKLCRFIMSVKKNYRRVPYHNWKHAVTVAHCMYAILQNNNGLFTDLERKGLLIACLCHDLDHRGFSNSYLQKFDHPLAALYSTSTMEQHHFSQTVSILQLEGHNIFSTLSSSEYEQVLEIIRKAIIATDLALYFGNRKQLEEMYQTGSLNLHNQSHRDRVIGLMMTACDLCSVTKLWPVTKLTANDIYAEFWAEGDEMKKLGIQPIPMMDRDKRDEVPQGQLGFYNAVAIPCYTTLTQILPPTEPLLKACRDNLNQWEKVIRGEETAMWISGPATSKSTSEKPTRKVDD
Human recombinant PDE10A2, sequence (Q9Y233 267-1055): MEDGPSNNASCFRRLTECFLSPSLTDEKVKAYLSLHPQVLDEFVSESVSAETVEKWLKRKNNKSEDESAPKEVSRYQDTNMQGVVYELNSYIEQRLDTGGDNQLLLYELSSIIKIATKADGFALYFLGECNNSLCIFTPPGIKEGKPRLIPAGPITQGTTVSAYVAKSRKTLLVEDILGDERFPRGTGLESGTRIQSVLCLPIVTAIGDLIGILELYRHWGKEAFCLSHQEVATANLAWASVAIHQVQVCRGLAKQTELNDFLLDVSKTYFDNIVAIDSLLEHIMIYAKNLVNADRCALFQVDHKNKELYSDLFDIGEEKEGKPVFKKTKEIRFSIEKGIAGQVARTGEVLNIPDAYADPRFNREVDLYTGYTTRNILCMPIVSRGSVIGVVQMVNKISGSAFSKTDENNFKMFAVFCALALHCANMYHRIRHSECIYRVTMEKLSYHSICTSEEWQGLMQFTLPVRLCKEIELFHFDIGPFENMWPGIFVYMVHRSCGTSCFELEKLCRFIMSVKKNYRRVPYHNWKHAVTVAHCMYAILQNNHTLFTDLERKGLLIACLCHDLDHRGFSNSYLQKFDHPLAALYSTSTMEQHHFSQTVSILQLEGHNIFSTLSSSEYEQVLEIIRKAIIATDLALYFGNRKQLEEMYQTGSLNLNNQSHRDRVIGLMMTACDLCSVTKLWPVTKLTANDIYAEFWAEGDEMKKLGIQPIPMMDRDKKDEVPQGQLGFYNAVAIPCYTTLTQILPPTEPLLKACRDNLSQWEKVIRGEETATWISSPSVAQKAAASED

By IC50 is commonly meant the point on the concentration scale where inhibition reaches its midpoint. Regarding `CS(=O)(=O)Nc1ccc(-c2cnc(N3CCOCC3)c3nc(COc4ccc5ccccc5n4)cn23)cn1` [Cpd 85, N-(5-(8-Morpholino-2-((quinolin-2-yloxy)methyl)imidazo[1,2-a]pyrazin-5-yl)pyridin-2-yl)methanesulfonamide], the values for the IC50 in assay [1] and in assay [2] were 1 nM and 2 nM, respectively.

Consider `Cc1cc(S(=O)(=O)NC(C)C)ccc1-c1cnc(N2CCOCC2)c2nc(/C=C/c3ccc4ccccc4n3)cn12` [Cpd 49, (E)-N-isopropyl-3-methyl-4-(8-morpholino-2-(2-(quinolin-2-yl)vinyl)imidazo[1,2-a]pyrazin-5-yl)benzenesulfonamide], for which the IC50 amounted to 155 nM in assay [1] and 98 nM in assay [2].

For the compound `O=C(O)CNC(=O)c1ccc(-c2cnc(N3CCOCC3)c3nc(/C=C/c4ccc5ccccc5n4)cn23)cc1` [Cpd 50, (E)-2-(4-(8-Morpholino-2-(2-(quinolin-2-yl)vinyl)imidazo[1,2-a]pyrazin-5-yl)benzamido)acetic acid], the IC50 was determined as 18 nM in assay [1] and 17 nM in assay [2].

With `O=C1NC(=O)C(c2ccc(-c3cnc(N4CCOCC4)c4nc(/C=C/c5ccc6ccccc6n5)cn34)cc2)N1` (stereo not drawn) [Cpd 57, (E)-5-(4-(8-Morpholino-2-(2-(quinolin-2-yl)vinyl)imidazo[1,2-a]pyrazin-5-yl)phenyl)imidazolidine-2,4-dione 2,2,2-trifluoroacetate], the IC50 in assay [1] was determined as 46 nM; in assay [2], 48 nM.

On to `C1=C(c2ccc(-c3cnc(N4CCOCC4)c4nc(COc5ccc6ccccc6n5)cn34)cn2)CCNC1` [Cpd 108, 4-(2-((quinolin-2-yloxy)methyl)-5-(1′,2′,3′,6′-tetrahydro-[2,4′-bipyridin]-5-yl)imidazo[1,2-a]pyrazin-8-yl)morpholine methane sulfonic acid salt], for which the IC50 in assay [1] worked out at 35 nM; in assay [2], 23 nM.

Turning to `O=C(O)CNC(=O)c1ccc(-c2cnc(N3CCOCC3)c3nc(CCc4ccc5ccccc5n4)cn23)cc1` [Cpd 46, 2-(4-(8-Morpholino-2-(2-(quinolin-2-yl)ethyl)imidazo[1,2-a]pyrazin-5-yl)benzamido)acetic acid], the IC50 in assay [1] stood at 7 nM; in assay [2], 4 nM.

With `c1ccc2nc(N3CC(c4cn5c(-c6ccc(N7CCNCC7)nc6)cnc(N6CCOCC6)c5n4)C3)ccc2c1` [Cpd 99, 4-(5-(6-(piperazin-1-yl)pyridin-3-yl)-2-(1-(quinolin-2-yl)azetidin-3-yl)imidazo[1,2-a]pyrazin-8-yl)morpholine], the results for the IC50 in assay [1] and in assay [2] were 224 nM and 204 nM, respectively.

For the compound `O=C(O)c1ccc(-c2cnc(N3CCOCC3)c3nc(C#Cc4nc5ccccc5s4)cn23)cc1` [Cpd 11, 4-(2-(Benzo[d]thiazol-2-ylethynyl)-8-morpholinoimidazo[1,2-a]pyrazin-5-yl)benzoic acid], the IC50 is 7 nM in assay [1] and 9 nM in assay [2].

For the compound `O=C(O)Cc1ccc(-c2cnc(N3CCOCC3)c3nc(COc4ccc5ccccc5n4)cn23)cn1` [Cpd 101, 2-(5-(8-Morpholino-2-((quinolin-2-yloxy)methyl)imidazo[1,2-a]pyrazin-5-yl)pyridin-2-yl)acetic acid], the IC50 in assay [1] is 15 nM; in assay [2], 20 nM.

As for `CC(C)[C@H](NC(=O)c1ccc(-c2cnc(N3CCOCC3)c3nc(CCc4ccc5ccccc5n4)cn23)cc1)C(=O)O` [Cpd 34, (S)-3-Methyl-2-(4-(8-morpholino-2-(2-(quinolin-2-yl)ethyl)imidazo[1,2-a]pyrazin-5-yl)benzamido)butanoic acid trifluoroacetic acid salt], the IC50 in assay [1] amounted to 5 nM; in assay [2] it was 13 nM.

Regarding `COc1cc(-c2ncc(-c3ccc(N4CCNCC4)nc3)n3cc(/C=C/c4ccc5ccccc5n4)nc23)ccn1` [Cpd 81], the IC50 was 245 nM in assay [1] and 91 nM in assay [2].

With `COc1cccc(/C=C/c2cn3c(-c4ccc(C(=O)O)cc4)cnc(N4CCOCC4)c3n2)n1` [Cpd 7, (E)-4-(2-(2-(6-Methoxypyridin-2-yl)vinyl)-8-morpholinoimidazo[1,2-a]pyrazin-5-yl)benzoic acid], the IC50 in assay [1] amounted to 6 nM; in assay [2] it was 16 nM.

Turning to `C(=C\c1cn2c(-c3ccc(-c4nnn[nH]4)nc3)cnc(N3CCOCC3)c2n1)/c1ccc2ccccc2n1` [Cpd 96, (E)-4-(5-(6-(1H-Tetrazol-5-yl)pyridin-3-yl)-2-(2-(quinolin-2-yl)vinyl)imidazo[1,2-a]pyrazin-8-yl)morpholine], the results for the IC50 in assay [1] and in assay [2] were 3 nM and < 1 nM, respectively.

Consider `O=C1CN(c2ncc(-c3ccc(N4CCNCC4)nc3)n3cc(COc4ccc5ccccc5n4)nc23)CCN1` [Cpd 115, 4-(5-(6-(piperazin-1-yl)pyridin-3-yl)-2-((quinolin-2-yloxy)methyl)imidazo[1,2-a]pyrazin-8-yl)piperazin-2-one trifluoroacetic acid salt], for which the IC50 in assay [1] is 85 nM; in assay [2], 40 nM.

Regarding `CN1CCN(c2ccc(-c3cnc(N4CCOCC4)c4nc(COc5ccc6ccccc6n5)cn34)cn2)CC1` [Cpd 130, 4-(5-(6-(4-Methylpiperazin-1-yl)pyridin-3-yl)-2-((quinolin-2-yloxy)methyl)imidazo[1,2-a]pyrazin-8-yl)morpholine], the results for the IC50 in assay [1] and in assay [2] were 42 nM and 16 nM, respectively.

Consider `OC(c1ccc(-c2cnc(N3CCOCC3)c3nc(/C=C/c4ccc5ccccc5n4)cn23)cc1)(C(F)(F)F)C(F)(F)F` [Cpd 2, (E)-1,1,1,3,3,3-hexafluoro-2-(4-(8-morpholino-2-(2-(quinolin-2-yl)vinyl)imidazo[1,2-a]pyrazin-5-yl)phenyl)propan-2-ol], for which the IC50 in assay [1] was determined as 30 nM; in assay [2], 20 nM.

Regarding `NC(=O)c1ccc(-c2cnc(N3CCOCC3)c3nc(COc4ccc5ccccc5n4)cn23)cn1` [Cpd 84, 5-(8-Morpholino-2-((quinolin-2-yloxy)methyl)imidazo[1,2-a]pyrazin-5-yl)picolinamide], the 50% inhibitory concentration (IC50) in assay [1] turned out to be 16 nM; in assay [2], 8 nM.

On to `C(=C\c1ncc2ccccc2n1)/c1cn2c(-c3ccc(N4CCNCC4)nc3)cnc(N3CCOCC3)c2n1` [Cpd 104, (E)-4-(5-(6-(Piperazin-1-yl)pyridin-3-yl)-2-(2-(quinazolin-2-yl)vinyl)imidazo[1,2-a]pyrazin-8-yl)morpholine], for which the IC50 stood at 129 nM in assay [1] and 68 nM in assay [2].

Consider `O=C(O)CCC(=O)Nc1ccc(-c2cnc(N3CCOCC3)c3nc(/C=C/c4ccc5ccccc5n4)cn23)cc1` [Cpd 32], for which the IC50 stood at 12 nM in assay [1] and 6 nM in assay [2].

With `O=C1NS(=O)(=O)c2cc(-c3cnc(N4CCOCC4)c4nc(CCc5ccc6ccccc6n5)cn34)ccc21` [Cpd 54, 6-(8-Morpholino-2-(2-(quinolin-2-yl)ethyl)imidazo[1,2-a]pyrazin-5-yl)benzo[d]isothiazol-3(2H)-one 1,1-dioxide trifluoroacetic acid salt], the IC50 in assay [1] and in assay [2] was 1 nM in each case.

As for `c1ccc2nc(C3CN(c4cn5c(-c6ccc(N7CCNCC7)nc6)cnc(N6CCOCC6)c5n4)C3)ccc2c1` [Cpd 114, 4-(5-(6-(piperazin-1-yl)pyridin-3-yl)-2-(3-(quinolin-2-yl)azetidin-1-yl)imidazo[1,2-a]pyrazin-8-yl)morpholine trifluoroacetic acid salt], the values for the IC50 in assay [1] and in assay [2] were 1350 nM and 2000 nM, respectively.

As to `COCCOCCOc1ccc(-c2cnc(N3CCOCC3)c3nc(/C=C/c4ccc5ccccc5n4)cn23)cc1` [Cpd 18, (E)-4-(5-(4-(2-(2-Methoxyethoxy)ethoxy)phenyl)-2-(2-(quinolin-2-yl)vinyl)imidazo[1,2-a]pyrazin-8-yl)morpholine], the IC50 in assay [1] is 83 nM; in assay [2], 102 nM.

As for `O=C(NCCO)Nc1ccc(-c2cnc(N3CCOCC3)c3nc(/C=C/c4ccc5ccccc5n4)cn23)cc1` [Cpd 72, (E)-1-(2-Hydroxyethyl)-3-(4-(8-morpholino-2-(2-(quinolin-2-yl)vinyl)imidazo[1,2-a]pyrazin-5-yl)phenyl)urea], the IC50 in assay [1] turned out to be 31 nM; in assay [2], 46 nM.

With `O=c1[nH]cnn1-c1ccc(-c2cnc(N3CCOCC3)c3nc(CCc4ccc5ccccc5n4)cn23)cc1` [Cpd 21, 1-(4-(8-Morpholino-2-(2-(quinolin-2-yl)ethyl)imidazo[1,2-a]pyrazin-5-yl)phenyl)-1H-1,2,4-triazol-5(4H)-one], the IC50 in assay [1] is 25 nM; in assay [2], 31 nM.

As for `C(=C\c1cn2c(-c3ccc(N4CCNCC4)nc3)cnc(C3CCOCC3)c2n1)/c1ccc2ccccc2n1` [Cpd 80, (E)-2-(2-(5-(6-(piperazin-1-yl)pyridin-3-yl)-8-(tetrahydro-2H-pyran-4-yl)imidazo[1,2-a]pyrazin-2-yl)vinyl)quinoline trifluoroacetic acid salt], the IC50 was determined as 617 nM in assay [1] and 562 nM in assay [2].

As to `CC(=O)NS(=O)(=O)c1ccc(-c2cnc(N3CCOCC3)c3nc(COc4ccc5ccccc5n4)cn23)cc1` [Cpd 88, N-((4-(8-Morpholino-2-((quinolin-2-yloxy)methyl)imidazo[1,2-a]pyrazin-5-yl)phenyl)sulfonyl)acetamide], the values for the IC50 in assay [1] and in assay [2] were 9 nM and 12 nM, respectively.

With `Oc1ncn(-c2ccc(-c3cnc(N4CCOCC4)c4nc(CCc5ccc6ccccc6n5)cn34)cc2)n1` [Cpd 51, 1-(4-(8-Morpholino-2-(2-(quinolin-2-yl)ethyl)imidazo[1,2-a]pyrazin-5-yl)phenyl)-1H-1,2,4-triazol-3-ol], the figures for the IC50 in assay [1] and in assay [2] were 4 nM and 5 nM, respectively.

For the origin of these results see patent US9249163B2, “PDE10a inhibitors for the treatment of type II diabetes” (Janssen Pharmaceutica, NV, priority 2013, dated 2016).
